Data on 4 compounds can be found in US20230340440A1, “GENETIC MANIPULATION METHOD IN BACTERIA” (University of Washington, priority 2022, published 2023).

For one data set, the system named is P. putida. The experiment in a line: growth experiment with extracellular p-ACA, P. putida. The class given is cell-based. An excerpt: (§1) FIGS. 31A-31F show CRISPRa efficiency can be tuned by expression level of scRNA. The optimized expression level of scRNA from pBBR1-GmR is under J23110 promoter. Higher level (BBa_J23119) or lower level (BBa_J23106) led to decrease in CRISPRa effects (FIG. 31A). CRISPRa efficiency can be tuned by scRNA composition (FIG. 31B). Truncating the spacer sequence from 20 nucleotides to 8 nucleotides led to titratable expression level by CRISPRa. Desired product p-ACA is toxic to E. coli but not P. putida (FIG. 31C). In this kinetic growth experiment, extracellular p-ACA is supplied in the media at the indicated concentrations, and cultures are grown in a plate reader with periodic density measurements. E. coli growth is severely limited above 20 mM p-ACA (dash-dotted line). Early timepoints are sometimes obscured by p-ACA precipitate, which eventually resolubilizes. […] Error bars represent standard deviation of n=3 biological replicates. […] An example of CRISPRa with 3 orthogonal scRNAs activating 3 fluorescent reporters (FIG. 31E). Multiple scRNAs construction strategy was based on Golden-Gate Assembly (FIG. 31F).
(§2) With further chemical modification or bioconversions, pACA can be converted into p-aminostyrene (pAS) which is a precursor of derivatized polystyrene, containing a functional group for further modification or functionalization with other polymers. […] Assuming that high concentration of pACA could be deleterious to the host, a growth experiment using E. coli, the standard chassis, and P. putida, known for resistance to aromatic compounds was performed. It is obvious that E. coli cannot tolerate high concentrations of pACA while P. putida growth is less affected. Thus, the solution to microbial production of pACA might be achievable with P. putida as an alternative chassis.
In contrast to E. coli, p-ACA has little effect on P. putida growth, even up to 20 mM extracellular (close to its solubility limit). Therefore, the inventors chose to port the existing pAF pathway into P. putida to extend it to more valuable downstream aromatic products.

The subject of the next data set is E. coli. The experiment in a line: growth experiment with extracellular p-ACA, E. coli. The data set is classed as cell-based.
Description: as §1, §2
As originally implemented in E. coli, the p-AF production pathway consisted of the P. fluorescens papABC operon78 under tet-inducible control, along with a feedback-resistant E. coli aroG74 and aroL in their own operon, which is also tet-inducible. […] Toxic amounts of extracellular p-ACA, the result of a spike into the media, are shown in FIG. 31B, with 50% reduction of E. coli growth occurring above 10 mM extracellular.

The next data set is described as follows: p-ACA solubility limit. The class given is physicochemical. Conditions: aqueous buffer; extracellular, culture media.
In the next data set the test system is P. putida cultures. The experiment in a line: consumption of extracellular p-ACA by growing P. putida cultures. Conditions: stability of accumulation in culture supernatant.
The subject of the next data set is LacI-Ptrc promoter. The data set can be described thus: inducible LacI-Ptrc-mediated activation of an mRFP reporter gene. The data set is classed as cell-based, P. putida KT2440. As to conditions: 1 mM IPTG compared to the no inducer condition. The method, then: (§3) FIGS. 17A-17C show inducible promoters in P. putida (FIG. 17A). Inducible LacI-Ptrc-mediated activation of an mRFP reporter gene in P. putida KT2440 with 0-1 mM IPTG. A 13-fold activation at 1 mM IPTG was observed compared to the no inducer condition. Inducible XylS-Pm-mediated activation of an mRFP reporter gene in P. putida KT2440 with 0-5 mM m-toluic acid (FIG. 17B). […] The XylS-Pm promoter provides a better dynamic range compared to LacI-Ptrc promoter mainly due to its relatively low basal expression. mRFP reporter gene fluorescence distributions measured by flow cytometry (FIG. 17C). […] Values in FIG. 17A represent the mean ± standard deviation calculated from n = 6 independent biological replicates. Values in FIG. 17B represent the mean ± standard deviation calculated from n = 3 independent biological replicates. […]
(§4) Fluorescence measurements of reporter gene expression were carried out either by flow cytometry or plate reader. […] For flow cytometry, overnight cultures were diluted 1:50 in Dulbecco’s phosphate-buffered saline (PBS) and analyzed on a MACSQuant VYB flow cytometer with the MACSQuantify 2.8 software (Miltenyi Biotec) using the methods and instruments settings as described (Dong et al., 2018. Synthetic CRISPR-Cas gene activators for transcriptional reprogramming in bacteria. Nat Commun 9, 2489). […]

Another data set relates to XylS-Pm-dCas9. The data set can be described thus: tunable CRISPRa/CRISPRi in inducible-dCas9 strain (PPC08), J3-BBa_J23110-mRFP reporter. The data set is classed as cell-based, P. putida. An excerpt:
FIGS. 5A-5B show CRISPRa with endogenous promoters and inducible CRISPRa/CRISPRi in P. putida. The putative promoter sequences between two open reading frames (ORFs) with 60 bp flanking sequences were incorporated into the mRFP reporter (FIG. 5A). scRNAs were introduced for all potentially activable target sites corresponding to the effective distances as tested in FIGS. 2B & 2C. Precise distances from the target site to the TSS are listed in Table 5. hAAVS1 was used as an off-target scRNA for all ten promoters. […] The inducible-dCas9 strain yielded 3-fold activation with CRISPRa or 7-fold repression with CRISPRi at 1 mM m-toluic acid compared to the no-inducer control. Fold-changes compared to the off-target control were 4-fold and 5-fold, respectively. […] Values represent the mean ± standard deviation calculated from n = 3 independent biological replicates.
(§5) Fluorescence measurements of reporter gene expression were carried out either by flow cytometry or plate reader. Single colonies from LB plates were inoculated in 500 µL of EZ-RDM (Teknova) supplemented with the appropriate antibiotics and grown in 96-deep-well plates at 30° C. with shaking overnight 225 rpm. For small-molecule induction, overnight cultures were diluted 100-fold into a new culture with appropriate antibiotics and inducers, then shaken overnight at 30° C., 225 rpm. For flow cytometry, overnight cultures were diluted 1:50 in Dulbecco’s phosphate-buffered saline (PBS) and analyzed on a MACSQuant VYB flow cytometer with the MACSQuantify 2.8 software (Miltenyi Biotec) using the methods and instruments settings as described (Dong et al., 2018. Synthetic CRISPR-Cas gene activators for transcriptional reprogramming in bacteria. Nat Commun 9, 2489). For plate reader measurements, 150 µL of overnight culture were transferred into a flat, clear-bottomed black 96-well plate. OD600 and fluorescence values were measured in a Biotek Synergy HTX plate reader and analyzed using the BioTek Gen5 2.07.17 software. For mRFP1 detection, the excitation wavelength was 540 nm and emission wavelength was 600 nm. For sfGFP detection, the excitation wavelength was 485 nm and the emission wavelength was 528 nm. Data were plotted using Prism (GraphPad).
A reporter with either an activating scRNA or a repressing sgRNA was delivered to the inducible dCas9 strain (PPC08) and 3-fold activation with CRISPRa or 7-fold repression with CRISPRi at 1 mM m-toluic acid (FIG. 5B) was observed. […] By targeting CRISPRi and CRISPRa to the same locus, we may be able to obtain lower basal expression and higher induced expression. […]

In another data set the test system is XylS-Pm promoter. The experiment in a line: inducible XylS-Pm-mediated activation of an mRFP reporter gene. Conditions: 1 mM m-toluic acid compared to the no inducer condition. The class given is cell-based, P. putida KT2440. The method, then: as §3, §4
The test system of data set [1] is XylS-Pm promoters regulating dCas9 and/or MCP-SoxS. The experiment in a line: inducible CRISPRa by XylS-Pm on CRISPRa machinery, J3-BBa_J23117-mRFP reporter (pPPC020). Conditions: for fold-activation in the presence of inducer: J306 scRNA. The data set is classed as cell-based, P. putida.
Description: FIGS. 18A-18B show inducible CRISPRa by XylS-Pm on CRISPRa machinery. Inducible dCas9/MCP-SoxS constructs were integrated into the P. putida genome with the mini-Tn7 method (FIG. 18A). XylS-Pm promoters were introduced in place of the Sp.pCas9 promoter regulating dCas9 and/or the BBa_J23107 promoter for MCP-SoxS. Strains were transformed with a vector (pPPC020) carrying either an off-target scRNA or a J306 scRNA (FIG. 18B). The fold-activation in the presence of m-toluic acid as an inducer are 9-fold, 5-fold, and 10-fold from PPC08, PPC09, and PPC10, respectively. […] If only MCP-SoxS is under control of the inducible promoter, leaky activation is detectable. In a strain with constitutively expressed CRISPRa machinery that should not be responsive to inducer, high inducer concentrations (5 mM) also led to a modest increase in mRFP expression (1.3-fold). Values represent the mean ± standard deviation calculated from n = 3 independent biological replicates.
as §5, with “For sfGFP detection, the excitation wavelength was 485 nm and the emission wavelength was 528 nm. Data were plotted using Prism (GraphPad).” left out
To tune expression levels with CRISPRa and CRISPRi, the CRISPR system components were placed under the control of a small-molecule inducible promoter. dCas9 and/or MCP-SoxS were expressed using XylS-Pm, an inducible promoter system from the P. putida mt-2 toluene degradation pathway (Wirth et al., 2019. Accelerated genome engineering of Pseudomonas putida by I-SceI-mediated recombination and CRISPR-Cas9 counterselection. Microb Biotechnol). […] In all three inducible strains assessed, tunable gene activation as a function of inducer concentration was observed (FIG. 18B). […]

Where [2] appears, read: 1 mM m-toluic acid compared to the no-inducer control.
[3] abbreviates: 1 mM m-toluic acid compared to the off-target control.

≈ marks a conversion by molar mass, not a printed value. Read-outs that look alike come from different tables or passages of the source.

For the compound `Nc1ccc(C=CC(=O)O)cc1` [p-ACA, p-aminocinnamic acid], in the data set with P. putida (follow-up experiments), the “toxicity in P. putida strain with the putative catabolic pathway knocked out” value was “lack of p-ACA toxicity”. In addition, in the data set on P. putida (kinetic growth experiment, extracellular p-ACA in the media (FIG. 31C)), the P. putida growth result is recorded as “relatively unaffected”. Moreover, in the data set on P. putida (up to 20 mM extracellular), the “effect on P. putida growth” value is “little effect”. Moreover, the IC50 with E. coli (Escherichia coli, read-out: 50% reduction of E. coli growth) is greater than 10 mM. For the same compound, the “E. coli growth severely limited above” value with E. coli (kinetic growth experiment, extracellular p-ACA in the media, plate reader (FIG. 31C)) was “above 20 mM”. Also, the “toxic effects in E. coli host” value in the data set with E. coli (production/accumulation in E. coli) is listed as “toxic effects”. In “p-ACA solubility limit”, the solubility is roughly 20 mM (≈ 3260 µg/mL). The “consumption of extracellular p-ACA by growing P. putida cultures” value in the data set on P. putida cultures is reported as “lack of consumption”.

As to `Nc1ccc(C[C@H](N)C(=O)O)cc1` [p-AF, p-aminophenylalanine], the “toxic effects in E. coli host” value in the data set with E. coli is reported as “can safely accumulate”.

Regarding `CC(C)S[C@@H]1O[C@H](CO)[C@H](O)[C@H](O)[C@H]1O` [IPTG], the “activation of mRFP reporter (LacI-Ptrc)” value with LacI-Ptrc promoter stood at 13 fold.

Turning to `Cc1cccc(C(=O)O)c1` [m-toluic acid], in the data set on XylS-Pm-dCas9 (setting [2]), the “activation with CRISPRa” value was 3 fold and the “repression with CRISPRi” value was 7 fold. Also, in the data set with XylS-Pm-dCas9 (setting [3]), the “fold-change with CRISPRa” value is 4 fold and the “fold-change with CRISPRi” value is recorded as 5 fold. For the same compound, the “activation of mRFP reporter (XylS-Pm)” value in the data set on XylS-Pm promoter is on record as greater than 300 fold. Besides, the “increase in mRFP expression” value in data set [1] (5 mM inducer, strain with constitutively expressed CRISPRa machinery) stood at 1.3 fold. For the same compound, in data set [1] (strain PPC08 (inducible dCas9)), the “fold-activation in the presence of inducer” value (“fold-activation” below) amounted to 9 fold. Further, the “fold-activation” value in data set [1] (strain PPC09 (inducible MCP-SoxS)) came out at 5 fold. Also, the “fold-activation” value in data set [1] (strain PPC10 (dCas9 and MCP-SoxS inducible)) was determined as 10 fold.
